What all share (assay type): cell-based
One assay deals with IL-8. Put plainly: Cytokine analysis, in vitro expression of IL-8. Particulars: human primary monocytes; DEX 2.5, 0.25, 0.025 μg/ml; methotrexate 50, 5, 0.5 μg/ml; dose- and incubation time-dependent.
The next assay relates to IL-1α. Put plainly: Cytokine analysis, in vitro expression of IL-1α. Particulars: human primary monocytes; DEX 2.5, 0.25, 0.025 μg/ml; methotrexate 50, 5, 0.5 μg/ml; dose- and incubation time-dependent.
Another assay relates to human Mo/MØs. Put plainly: Morphology of Mo/MØ monolayers on polyetherurethane cultured with DSP (OM, SEM). Particulars: human Mo/MØs on PEU cultured with DSP in media, versus standard media.

Structures are written as SMILES.

Procedure for IL-1α: (§1) In order to assess the in vitro expression of IL-1α and IL-8, human primary monocytes were incubated with various concentrations of DEX (2.5, 0.25, and 0.025 μg/ml) and methotrexate (50, 5, and 0.5 μg/ml).
Procedure for IL-8: as §1
Procedure for human Mo/MØs: Blood was anticoagulated with 2 units/ml sodium heparin (Upjohn Co., Kalamazoo, Mich.). Mononuclear cells (lymphocytes, monocytes) were isolated within 15 minutes by a one-step density gradient centrifugation procedure using Isopaque-1077 (a density gradient solution) according to a modified Boyum's method (Boyum et al., Blood Separation and Plasma Fractionation, 217-239, Wiley-Liss, Inc. (1991)). The mononuclear cells were harvested and washed twice with cold Hanks balanced salt solution (HBSS) without Ca^2+ and Mg^2+ to minimize cell aggregation. The cells were then resuspended in standard media (RPMI-1640, 10% Fetal bovine serum, 0.2M L-glutamine, 10 Ul/ml Penicillin-G, and 0.1 mg/ml Streptomycin). The cell suspension was seeded into several plastic tissue culture flasks and incubated in the presence of 5% CO2 at 37° C. for 1 hour (Ackerman et al., J. Immunol., 20, 1372-1374 (1978)). After this incubation, adherent (monocytes) were gently scrapped from the surface and resuspended in standard media. Nonadherent cells (lymphocytes) contained in the supernatant were recovered into sterile tubes, and the remaining nonadherent cells washed off with cold HBSS. […] The polymer surfaces were also evaluated using SEM following the 10-day treatment with FeCl2. […]

Consider `CN(Cc1cnc2nc(N)nc(N)c2n1)c1ccc(C(=O)N[C@@H](CCC(=O)O)C(=O)O)cc1` [methotrexate], for which, in the assay with IL-8, the IL-8 inhibition result was “higher rate of IL-1 and IL-8 inhibition”. Further, the IL-1 inhibition result in the assay with IL-1α was “higher rate of IL-1 and IL-8 inhibition”.
Consider `C[C@@H]1C[C@H]2[C@@H]3CCC4=CC(=O)C=C[C@]4(C)[C@@]3(F)[C@@H](O)C[C@]2(C)[C@@]1(O)C(=O)COP(=O)(O)O` [DSP, dexamethasone sodium phosphate], for which the “cell size of Mo/MØ monolayers (OM)” value in the assay on human Mo/MØs is “no increase in cell size”.
